The text below walks through data of US6544727B1, “Methods and devices for the removal of psoralens from blood products” (Cerus Corporation, priority 1995, dated 2003).

Series [1] concerns Salmonella tester strain TA1538. The procedure:
(§1) In this example the compounds of the present invention are tested for their dark mutagenicity using an Ames assay. The procedures used for the Salmonella mutagenicity test as described in detail by Maron and Ames were followed exactly. Maron, D. M. and B. N. Ames, Mutation Research 113: 173 ( 1983). A brief description for each procedure is given here. The tester strains TA97a, TA98, TA100, TA102, TA1537 and TA1538 were obtained from Dr. Ames. TA97a, TA98, TA1537 and TA1538 are frameshift tester strains. TA100 and TA102 are base-substitution tester strains. Upon receipt each strain was cultured under a variety of conditions to confirm the genotypes specific to the strains.
(§2) The first tests done with the strains were to determine the range of spontaneous reversion for each of the strains. With each mutagenicity experiment the spontaneous reversion of the tester strains to histidine independence was measured and expressed as the number of spontaneous revertants per plate. This served as the background controls.
(§3) For all experiments, the pre-incubation procedure was used. In this procedure one vial of each tester strain was thawed and 20 μL of this culture was added to 6 mL of Oxoid Nutrient Broth #2. This solution was allowed to shake for 10 hours at 37° C. In the pre-incubation procedure, 0.1 mL of this overnight culture was added to each of the required number of sterile test tubes. To half of the tubes 0.5 mL of a 10% S-9 solution containing Aroclor 1254 induced rat liver extract (Molecular Toxicology Inc., Annapolis, Md.), and MgCl2, KCl, glucose-6-phosphate, NADP, and sodium phosphate buffer (Sigma, St. Louis, Mo.) were added. To the other half of the tubes 0.5 mL of 0.2M sodium phospate buffer, pH 7.4, was used in place of the S-9 mixture (the—S9samples). Finally 0.1 mL of the test solution containing either 0, 0.1, 0.5, 1, 5, 10, 50, 100, 250, or 500 μg/mL of the test compound was added. The 0.7 mL mixture was vortexed and then pre-incubated while shaking for 20 minutes at 37° C. After shaking, 2 mL of molten top agar supplemented with histidine and biotin were added to the 0.7 mL mixture and immediately poured onto a minimal glucose agar plate (volume of base agar was 20 mL). The top agar was allowed 30 minutes to solidify and then the plates were inverted and incubated for 44 hours at 37° C. After incubation the number of revertant colonies on each plate were counted. […] (“n” represents the number of replicates performed for each data point.)

Series [2] concerns Salmonella tester strain TA100. The protocol:
as §1, §2, §3

For series [3], the system named is R17 bacteriophage. In words: R17 bacteriophage inactivation assay, varying compound concentration. The conditions noted are these: for R17 inactivation efficiency compared with AMT or 8-MOP (in words): varying concentration, Tables 6-9, FIGS. 6-10. In kind it is cell-based. The procedure: An r-17 bacteriophage assay was used in this example to predict pathogen inactivation efficiency and to determine nucleic acid binding of the photoreactive binding compounds of the present invention. In the r-17 assay, the bacteriophage was placed in a solution with each compound tested and was then irradiated. The ability of the phage to subsequently infect bacteria and inhibit their growth was measured. The bacteriophage was selected for its relatively accessible nucleic acid such that the culture growth inhibition would accurately reflect nucleic acid damage by the test compounds. The bacteriophage assay for nucleic acid binding to test compounds offers a safe and inexpensive procedure to identify compounds likely to display efficient pathogen inactivation.
The R17 was grown up in Hfr 3000 bacteria, approximate titer 5×10^11. (R17 and Hfr 3000 were obtained from American Tissue Culture Collection (ATCC), Washington, D.C.) The R17 phage stock was added to a solution of 15% fetal bovine serum in Dulbecco's Modified Eagles Medium (DMEM) to a final phage concentration of 10^9/mL. An aliquot (0.5 mL) was transferred to a 1.5 mL snap-top polyethylene tube. An aliquot (0.004-0.040 mL) of the test compound stock solution prepared in water, ethanol or dimethylsulfoxide at 0.80-8.0 mM was added to the tube. Compounds were tested at concentrations between 4 μM and 320 μM. […] The tubes were placed in a light device as described in EXAMPLE 1 and irradiated for between 1 and 10 minutes. Sterile 13 mL dilution tubes were prepared; each test compound required one tube with 0.4 mL of Luria broth (LB) and five tubes containing 0.5 mL of LB broth. To make the dilutions, a 0.100 mL aliquot of the irradiated solution of phage and test compound was added to the first dilution tube of 0.4 mL of media then 0.020 mL of this solution was added to the second tube of 0.5 mL medium (1:25). The second solution was then diluted serially (1:25) into the remaining tubes. To each diluted sample was added 0.050 mL of Hfr 3000 bacteria cultured overnight and 3 mL of molten LB top agar and the mixed materials were poured onto LB broth plates. After the top agar hardened, the plates were incubated at 37° C. overnight. The plaque forming units were then counted the following morning and the titer of the phage remaining after phototreatment was calculated based on the dilution factors.
The following controls were run: the “phage only” in which phage was not treated with test compound and not irradiated (listed as “starting titer” in the tables below); the “UV only” in which the phage was irradiated in the absence of test compound; and the “dark” control in which the phage/test compound solution was not irradiated before it was diluted and plated.

The test system of a further series is HIV-1. The settings on record: for HIV Log Kill: 1 minute irradiation, starting titer approximately 5 logs (Table 10).
In series [4] the test system is Salmonella typhimurium tester strains. In words: Ames Salmonella dark mutagenicity test, overall assessment. In kind it is cell-based. The conditions noted are these: two-fold or greater increase in revertants above background and dose dependence. The procedure: A brief description for each procedure is given here. […] TA97a, TA98, TA1537 and TA1538 are frameshift tester strains. TA100 and TA102 are base-substitution tester strains.
This served as the background controls.
For all experiments, the pre-incubation procedure was used.

The subject of series [5] is R17 bacteriophage. Kind of series: R17 bacteriophage inactivation at constant concentration, varying doses of UV light. It is filed as cell-based. The conditions noted are these: 1.0-3.0 J/cm^2, FIGS. 11-17. The procedure: Compounds of the present invention were also tested at a constant concentration for varying doses of UV light. Three sets of 1.5 mL tubes were prepared containing 0.6mL aliquots of R17 in DMEM (prepared as described above). The compound tested was added at the desired concentration and the samples were vortexed. The samples were then irradiated at intervals of 1.0 J/cm^2, until 3.0 J/cm^2 was reached. Between each 1.0 J/cm^2 interval, 100 μL was removed from each sample and placed in the first corresponding dilution tube, then five sequential dilutions were performed for each compound tested, at all 3 irradiation doses, as described above in this example.
Then 50 μL of Hfr 3000 bacteria was added to each tube, 3 mL of top agar was added and the tube contents were vortexed The contents of each tube was poured into its own LB plate and the plates were incubated overnight at 37° C. Plaques were counted by visual inspection the following morning.

Setting [6] is: 8 μM, starting titer approx. 7.2 logs, 1 minute irradiation (Table 7).
The mark [7] stands for this setting: 16 μM, starting titer approx. 7.2 logs, 1 minute irradiation (Table 7).
The mark [8] stands for this setting: 32 μM, starting titer approx. 7.2 logs, 1 minute irradiation (Table 7).
The mark [9] stands for this setting: Experiment 1, 32 μM compound, 1′ uva.
Where [10] appears, read: Experiment 1, 32 μM compound, 10′ uva.
Where [11] appears, read: Experiment 1, compound only (32 μM), no uva.
Setting [12] is: Experiment 2, 3.2 μM compound, 1′ uva.
Setting [13] is: Experiment 2, 3.2 μM compound, 10′ uva.
[14] abbreviates: Experiment 2, compound only (3.2 μM), no uva.
[15] abbreviates: Experiment 3, 4 μM compound, 1′ uva.
[16] abbreviates: Experiment 3, 8 μM compound, 1′ uva.
Setting [17] is: Experiment 3, 16 μM compound, 1′ uva.
The mark [18] stands for this setting: Experiment 3, compound only (16 μM), no uva.
The mark [19] stands for this setting: 16 μM, starting titer approx. 7.1 logs, 1 minute irradiation = 1.2 J/cm^2 (Table 8).

Structures are written as SMILES. Entries after “also recorded” stand apart in the source; their conditions may differ. Like-named read-outs stand apart in the source and are kept apart here.

Procedure for HIV-1: As in the R17 assay, small aliquots of the compounds listed in TABLES 10 and 11, below, at the concentrations listed in the table, were added to stock HIV-1 to a total of 0.5 mL. The stock HIV (10^5−10^7 plaque forming units/mL) was in DMEM15% FBS. […] Controls included HIV-1 stock only, HIV-1 plus UVA only, and HIV-1 plus the highest concentration of each psoralen tested, with no UVA. Post irradiation, all samples were store frozen at −70° C. until assayed for infectivity by a microtiter plaque assay. Aliquots for measurement of residual HIV infectivity in the samples treated with a compound of the present invention were withdrawn and cultured.
Residual HIV infectivity was assayed using an MT-2 infectivity assay. […] The assay medium was 85% DMEM (with a high glucose concentration) containing 100 μg of streptomycin, 100 U of penicillin, 50 μg of gentamicin, and 1 μg of amphotericin B per mL, 15% FBS and 2 μg of Polybrene (Sigma Chemical Co., St. Louis, Mo.) per mL. Test and control samples from the inactivation procedure were diluted in 50% assay medium and 50% normal human pooled plasma The samples were serially diluted directly in 96-well plates (Corning Glass Works, Corning, N.Y.). The plates were mixed on an oscillatory shaker for 30 seconds and incubated at 37° C. in a 5% CO2 atmosphere for 1 to 18 hours. […] After an additional 1 hour of incubation at 37° C. in 5% CO2, 0.075 mL of assay medium containing 1.6% SeaPlaque agarose (FMC Bioproducts, Rockland, Me.) and prewarmed to 38.5° C. was added to each well. The plates were kept at 37° C. for a few minutes until several plates had accumulated and then centrifuged in plate carriers at 600×g for 20 minutes in a centrifuge precooled to 10° C. In the centrifuge, cell monolayers formed prior to gelling of the agarose layer. The plates were incubated for 5 days at 37° C. in 5% CO2 and stained by the addition of 0.05 mL of 50 μg/mL propidium iodide (Sigma Chemical Co.) in phosphate-buffered saline (pH 7.4) to each well. After 24 to 48 hours, the red fluorescence-stained microplaques were visualized by placing the plates on an 8,000 μW/cm^2304 nm UV light box (Fotodyne, Inc., New Berlin, Wis.). The plaques were counted at a magnification of x20 to x25 through a stereomicroscope.

For `Cc1oc2c(C)c3oc(=O)cc(C)c3cc2c1CNCCN` [Compound 1, 4′-(4-amino-2-aza)butyl-4,5′,8-trimethylpsoralen], the “revertant colonies per plate” value in series [1] (TA1538 + S9, 5 μg/plate) is 21; in series [1] (TA1538 + S9, 10 μg/plate) it was 22; in series [1] (TA1538 − S9, 5 μg/plate), 10; in series [1] (TA1538 − S9, 10 μg/plate), 12; in series [2] (TA100 + S9, 5 μg/plate), −24; in series [2] (TA100 + S9, 10 μg/plate), −22. For the same compound, the “revertant colonies per plate” value in series [2] (TA100 − S9, 5 μg/plate) was determined as 292; in series [2] (TA100 − S9, 10 μg/plate), 337. The results for the “R17 Log Kill” value in the series on R17 bacteriophage [3] (setting [6]), with R17 bacteriophage [3] (setting [7]) and in the series on R17 bacteriophage [3] (setting [8]) were 1.7 log, 2.8 log and 5.3 log, respectively. In addition, in the series with R17 bacteriophage [3] (32 μM, starting titer approx. 7.5 logs, 1 minute irradiation), the “R17 log kill (32 μM)” value was above 6.6 log. Further, the “Log Titer” value in the series with R17 bacteriophage [3] (setting [9]) is on record as below 1; in the series on R17 bacteriophage [3] (setting [10]), below 1; in the series with R17 bacteriophage [3] (setting [11]), 7.6; in the series with R17 bacteriophage [3] (setting [12]), 6.9; with R17 bacteriophage [3] (setting [13]), 6.1; with R17 bacteriophage [3] (setting [14]) it was 7.7. Besides, the “Log Titer” value in the series with R17 bacteriophage [3] (setting [15]) came out at 6.3; in the series on R17 bacteriophage [3] (setting [16]), 5.6; in the series on R17 bacteriophage [3] (setting [17]), 3.9; with R17 bacteriophage [3] (setting [18]), 7.3. The “Logs Killed” value with R17 bacteriophage [3] (setting [9]) is above 6.7 logs; with R17 bacteriophage [3] (setting [10]), above 6.7 logs; in the series with R17 bacteriophage [3] (setting [11]), 0.1 logs; with R17 bacteriophage [3] (setting [12]), 0.9 logs; in the series on R17 bacteriophage [3] (setting [13]) it was 1.7 logs; with R17 bacteriophage [3] (setting [14]), 0.1 logs. Moreover, the “Logs Killed” value in the series with R17 bacteriophage [3] (setting [15]) came to 1.0 logs; with R17 bacteriophage [3] (setting [16]), 1.7 logs; with R17 bacteriophage [3] (setting [17]), 3.4 logs; in the series on R17 bacteriophage [3] (setting [18]), 0 logs. The “R17 inactivation efficiency compared with AMT or 8-MOP (in words)” value in the series with R17 bacteriophage [3] is recorded as “much higher R17 inactivation efficiency than does 8-MOP”. Further, the “HIV Log Kill” value in the series with HIV-1 (64 μM) is reported as 2.1 log. Moreover, in series [4], the “mutagenic response in the Ames assay (in words)” value (from here on “mutagenic response”) is “weak frameshift mutagen in TA1538 at 5 μg/plate in the presence of S9; also recorded: displayed mutation in the TA100 strain, but only in the absence of S9”.
As to `Cc1oc2c(C)c3oc(=O)cc(C)c3cc2c1CNCCCNCCCCNCCCN` [Compound 15, 4′-(14-amino-2,6,11-triaza)tetradecyl-4,5′,8-trimethylpsoralen], in the series on R17 bacteriophage [5], the “R17 inactivation efficiency compared with AMT (in words)” value is given as “more efficient at inactivating R17 than was AMT”.
For `Cc1oc2c(C)c3oc(=O)cc(C)c3cc2c1CCN` [Compound 3, 4′-(2-aminoethyl)-4,5′,8-trimethylpsoralen], the “revertant colonies per plate” value in series [1] (TA1538 + S9, 5 μg/plate) is 1; in series [1] (TA1538 + S9, 10 μg/plate), 9; in series [1] (TA1538 − S9, 5 μg/plate), 0; in series [1] (TA1538 − S9, 10 μg/plate) it was −6; in series [2] (TA100 + S9, 5 μg/plate), −19; in series [2] (TA100 + S9, 10 μg/plate) it was 8. Also, the “revertant colonies per plate” value in series [2] (TA100 − S9, 5 μg/plate) is 47; in series [2] (TA100 − S9, 10 μg/plate) it was 47. In addition, the “R17 Log Kill” value is given as 5.6 log in the series with R17 bacteriophage [3] (8 μM, starting titer approx. 7.1 logs, 1 minute irradiation = 1.2 J/cm^2 (Table 8)); above 6.2 log in the series with R17 bacteriophage [3] (setting [6]); above 6.1 log in the series with R17 bacteriophage [3] (setting [19]); above 6.2 log in the series with R17 bacteriophage [3] (setting [7]); above 6.2 log in the series with R17 bacteriophage [3] (setting [8]). In addition, in the series with R17 bacteriophage [3], the “R17 inactivation efficiency compared with AMT or 8-MOP (in words)” value is “significantly higher inactivation efficiency than does AMT”. In addition, the “HIV Log Kill” value in the series on HIV-1 (32 μM) is given as 2.7 log; in the series on HIV-1 (64 μM) it was above 3.8 log. Moreover, in the series on HIV-1 (cell-free HIV, 64 μM of compound or higher for compounds 2 and 3), the “HIV inactivation compared with AMT (in words)” value was “significantly more active than AMT”. Further, the “mutagenic response” value in series [4] was “no mutagenicity”.
Take `Cc1oc2c(C)c3oc(=O)cc(C)c3cc2c1COCCCN` [Compound 4, 4′-(5-amino-2-oxa)pentyl-4,5′,8-trimethylpsoralen]: the “revertant colonies per plate” value in series [1] (TA1538 + S9, 5 μg/plate) is 7; in series [1] (TA1538 + S9, 10 μg/plate), −2; in series [1] (TA1538 − S9, 5 μg/plate), −2; in series [1] (TA1538 − S9, 10 μg/plate), −2; in series [2] (TA100 + S9, 5 μg/plate), −10; in series [2] (TA100 + S9, 10 μg/plate) it was −3. Also, the “revertant colonies per plate” value is listed as −41 in series [2] (TA100 − S9, 5 μg/plate) and 3 in series [2] (TA100 − S9, 10 μg/plate). Also, the “R17 Log Kill” value is reported as 2.3 log with R17 bacteriophage [3] (setting [19]); 4.3 log with R17 bacteriophage [3] (32 μM, starting titer approx. 7.1 logs, 1 minute irradiation = 1.2 J/cm^2 (Table 8)); above 6.1 log in the series on R17 bacteriophage [3] (64 μM, starting titer approx. 7.1 logs, 1 minute irradiation = 1.2 J/cm^2 (Table 8)). Also, the “HIV Log Kill” value in the series on HIV-1 (32 μM) is given as 2.2 log; in the series on HIV-1 (64 μM), above 3.6 log. For the same compound, in series [4], the “mutagenic response” value is on record as “no mutagenicity”.
